Measured values reported in article PMC5908784, “Extracellular loops 2 and 3 of the calcitonin receptor selectively modify agonist binding and efficacy” (Biochemical Pharmacology, 2018).
Where a chain is given by its changes, count along the chain named. Where a SMILES comes first, the peptide text is derived from it. Bridges are numbered along the chain shown (N, C = ends).

Experiments:
Assay in all cases: cAMP accumulation
Type in all cases: cell-based
Conditions in all cases: mean ± S.E.M.; for Emax: cAMP maximal response, SEM; for EC50: cAMP, CV1-FlpIn cells, 30 min, IBMX
hCTR D373A = target: T1, hCTR D373A (Homo sapiens, UniProt P30988, D373A)
T1 construct: c-Myc (N); expressed in transfected cells
T1 sequence (P30988 25-474 D373A): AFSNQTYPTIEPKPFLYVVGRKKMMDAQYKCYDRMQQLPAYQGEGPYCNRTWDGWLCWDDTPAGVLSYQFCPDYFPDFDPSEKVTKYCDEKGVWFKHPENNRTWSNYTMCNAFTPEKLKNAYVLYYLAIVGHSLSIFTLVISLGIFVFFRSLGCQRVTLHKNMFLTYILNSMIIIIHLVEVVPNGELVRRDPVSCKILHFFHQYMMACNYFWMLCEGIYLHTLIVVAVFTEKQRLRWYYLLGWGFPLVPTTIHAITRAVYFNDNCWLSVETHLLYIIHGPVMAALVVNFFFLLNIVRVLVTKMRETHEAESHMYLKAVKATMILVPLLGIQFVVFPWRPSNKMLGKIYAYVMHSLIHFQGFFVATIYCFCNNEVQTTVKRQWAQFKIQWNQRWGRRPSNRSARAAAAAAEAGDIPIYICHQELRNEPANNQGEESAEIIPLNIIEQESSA
Protocol: (§1) Cells (2.5 × 10^4 cells/well) were seeded into 96-well plates and incubated overnight. Cells were stimulated with increasing concentrations of ligands for 30 min in the presence of IBMX. The liquid was discarded, changed to absolute ethanol and volatilized to dryness at room temperature. […] Data were normalized to the response of 100 μM forskolin.
(§2) Data were corrected for radioligand occupancy using the Cheng-Prusoff equation in Prism; as such data are reported as pKi. Emax and EC50 were estimated from concentration-response curves using with a 3-parameter logistic equation in Prism (v7). These values are a composite of functional affinity, efficacy and stimulus response coupling. […] Significance was accepted at P < 0.05.

hCTR F285A = target: T2, hCTR F285A (Homo sapiens, UniProt P30988, F285A)
T2 construct: expressed in transfected cells
T2 sequence (P30988 25-474 F285A): T1 sequence (P30988 25-474 D373A) with F261A, A349D
Protocol: as §1, §2

hCTR G369A = target: T3, hCTR G369A (Homo sapiens, UniProt P30988, G369A)
T3 construct: c-Myc (N); expressed in transfected cells
T3 sequence (P30988 25-474 G369A): T1 sequence (P30988 25-474 D373A) with G345A, A349D
Protocol: as §1, §2

hCTR I300A = target: T4, hCTR I300A (Homo sapiens, UniProt P30988, I300A)
T4 construct: c-Myc (N); expressed in transfected cells
T4 sequence (P30988 25-474 I300A): T1 sequence (P30988 25-474 D373A) with I276A, A349D
Protocol: as §1, §2

hCTR P360A = target: T5, hCTR P360A (Homo sapiens, UniProt P30988, P360A)
T5 construct: expressed in transfected cells
T5 sequence (P30988 25-474 P360A): T1 sequence (P30988 25-474 D373A) with P336A, A349D
Protocol: as §1, §2

| EC50 (hCTR D373A) [nM] | EC50 (hCTR F285A) [nM] | EC50 (hCTR G369A) [nM] | EC50 (hCTR I300A) [nM] | EC50 (hCTR P360A) [nM] | Compound | Emax (hCTR D373A) [%] | Emax (hCTR F285A) [%] | Emax (hCTR G369A) [%] | Emax (hCTR I300A) [%] | Emax (hCTR P360A) [%] |
| --- | --- | --- | --- | --- | --- | --- | --- | --- | --- | --- |
| 11.2 | 15.8 | 24.5 | 19.5 | 17.4 | CC(C)C[C@H](NC(=O)CNC(=O)[C@H](C)NC(=O)[C@H](CC(C)C)NC(=O)[C@H](CCCNC(=N)N)NC(=O)[C@H](Cc1cnc[nH]1)NC(=O)[C@@H](NC(=O)[C@@H](NC(=O)[C@@H]1CSSC[C@H](NC(=O)[C@H](C)N)C(=O)N[C@@H](CC(=O)O)C(=O)N[C@@H]([C@@H](C)O)C(=O)N[C@@H](C)C(=O)N[C@@H]([C@@H](C)O)C(=O)N1)C(C)C)[C@@H](C)O)C(=O)N[C@@H](CC(C)C)C(=O)N[C@@H](CO)C(=O)N[C@@H](CCCNC(=N)N)C(=O)N[C@@H](CO)C(=O)NCC(=O)NCC(=O)N[C@H](C(=O)N[C@H](C(=O)N[C@@H](CCCCN)C(=O)N[C@@H](CC(N)=O)C(=O)N[C@@H](CC(N)=O)C(=O)N[C@@H](Cc1ccccc1)C(=O)N[C@H](C(=O)N1CCC[C@H]1C(=O)N[C@H](C(=O)N[C@@H](CC(N)=O)C(=O)N[C@H](C(=O)NCC(=O)N[C@@H](CO)C(=O)N[C@@H](CCCCN)C(=O)N[C@@H](C)C(=O)N[C@@H](Cc1ccccc1)C(N)=O)C(C)C)[C@@H](C)O)C(C)C)C(C)C)C(C)C [hαCGRP] | 34 ± 5 | 122 ± 18 | 131 ± 20 | 73 ± 14 | 48 ± 5 |
| 0.389 | 0.0501 | 0.204 | 0.0501 | 0.132 | CSCC[C@H](NC(=O)CNC(=O)[C@H](CO)NC(=O)[C@H](Cc1ccccc1)NC(=O)[C@H](CCCNC(=N)N)NC(=O)[C@H](Cc1c[nH]cn1)NC(=O)[C@H](Cc1ccccc1)NC(=O)[C@H](CC(N)=O)NC(=O)[C@H](CC(N)=O)NC(=O)[C@H](CC(C)C)NC(=O)[C@H](CC(N)=O)NC(=O)[C@H](CCCNC(=N)N)NC(=O)[C@H](Cc1c[nH]c2ccccc12)NC(=O)[C@H](Cc1ccc(O)cc1)NC(=O)[C@H](C)NC(=O)[C@H](CO)NC(=O)[C@H](CC(C)C)NC(=O)[C@@H](NC(=O)[C@@H]1CSSC[C@H](N)C(=O)N[C@@H](CO)C(=O)N[C@@H](CC(N)=O)C(=O)N[C@@H](CC(C)C)C(=O)N[C@@H](CO)C(=O)N[C@@H]([C@@H](C)O)C(=O)N1)C(C)C)C(=O)NCC(=O)N[C@@H](Cc1ccccc1)C(=O)NCC(=O)N1CCC[C@H]1C(=O)N[C@@H](CCC(=O)O)C(=O)N[C@H](C(=O)N1CCC[C@H]1C(N)=O)[C@@H](C)O [pCT] (H-CSNLSTCVLSAYWRNLNNFHRFSGMGFGPETP-NH2; disulfide 1-7) | 158 ± 9 | 81 ± 10 | 89 ± 7 | 117 ± 11 | 146 ± 13 |
|  |  |  |  |  | CC(C)C[C@H](NC(=O)[C@H](CCCCN)NC(=O)CNC(=O)[C@H](CC(C)C)NC(=O)[C@@H](NC(=O)[C@@H]1CSSC[C@H](N)C(=O)N[C@@H](CO)C(=O)N[C@@H](CC(N)=O)C(=O)N[C@@H](CC(C)C)C(=O)N[C@@H](CO)C(=O)N[C@@H]([C@@H](C)O)C(=O)N1)C(C)C)C(=O)N[C@@H](CO)C(=O)N[C@@H](CCC(N)=O)C(=O)N[C@@H](CCC(=O)O)C(=O)N[C@@H](CC(C)C)C(=O)N[C@@H](Cc1c[nH]cn1)C(=O)N[C@@H](CCCCN)C(=O)N[C@@H](CC(C)C)C(=O)N[C@@H](CCC(N)=O)C(=O)N[C@H](C(=O)N[C@@H](Cc1ccc(O)cc1)C(=O)N1CCC[C@H]1C(=O)N[C@@H](CCCNC(=N)N)C(=O)N[C@H](C(=O)N[C@@H](CC(N)=O)C(=O)N[C@H](C(=O)NCC(=O)N[C@@H](CO)C(=O)NCC(=O)N[C@H](C(=O)N1CCC[C@H]1C(N)=O)[C@@H](C)O)[C@@H](C)O)[C@@H](C)O)[C@@H](C)O [sCT] | 116 ± 8 | 105 ± 8 | 106 ± 8 | 113 ± 11 | 100 ± 5 |
|  |  |  |  |  | CC[C@H](C)[C@H](NC(=O)[C@H](C)NC(=O)[C@@H](NC(=O)[C@H](CCC(N)=O)NC(=O)[C@@H]1CCCN1C(=O)[C@H](Cc1ccccc1)NC(=O)[C@@H](NC(=O)[C@H](Cc1c[nH]cn1)NC(=O)[C@H](Cc1ccccc1)NC(=O)[C@H](CCCCN)NC(=O)[C@H](CC(N)=O)NC(=O)[C@H](Cc1ccccc1)NC(=O)[C@H](CC(=O)O)NC(=O)[C@H](CCC(N)=O)NC(=O)[C@@H](NC(=O)[C@H](Cc1ccc(O)cc1)NC(=O)[C@@H](NC(=O)CNC(=O)[C@H](CC(C)C)NC(=O)[C@H](CCSC)NC(=O)[C@@H]1CSSC[C@H](N)C(=O)NCC(=O)N[C@@H](CC(N)=O)C(=O)N[C@@H](CC(C)C)C(=O)N[C@@H](CO)C(=O)N[C@@H]([C@@H](C)O)C(=O)N1)[C@@H](C)O)[C@@H](C)O)[C@@H](C)O)[C@@H](C)O)C(=O)NCC(=O)N[C@H](C(=O)NCC(=O)N[C@@H](C)C(=O)N1CCC[C@H]1C(N)=O)C(C)C [hCT] | 142 ± 8 | 105 ± 11 | 129 ± 9 | 116 ± 6 | 152 ± 8 |
|  |  |  |  |  | CC(C)C[C@H](NC(=O)[C@H](CC(N)=O)NC(=O)[C@H](CC(N)=O)NC(=O)[C@H](CO)NC(=O)[C@H](CO)NC(=O)[C@H](CCCNC(=N)N)NC(=O)[C@@H](NC(=O)[C@H](CC(C)C)NC(=O)[C@H](Cc1ccccc1)NC(=O)[C@H](CC(N)=O)NC(=O)[C@H](C)NC(=O)[C@H](CC(C)C)NC(=O)[C@H](CCCNC(=N)N)NC(=O)[C@H](CCC(N)=O)NC(=O)[C@@H](NC(=O)[C@H](C)NC(=O)[C@@H]1CSSC[C@H](NC(=O)[C@@H](N)CCCCN)C(=O)N[C@@H](CC(N)=O)C(=O)N[C@@H]([C@@H](C)O)C(=O)N[C@@H](C)C(=O)N[C@@H]([C@@H](C)O)C(=O)N1)[C@@H](C)O)C(C)C)C(=O)NCC(=O)N1CCC[C@H]1C(=O)N[C@H](C(=O)N[C@@H](CC(C)C)C(=O)N1CCC[C@H]1C(=O)N1CCC[C@H]1C(=O)N[C@H](C(=O)N[C@@H](CC(N)=O)C(=O)N[C@H](C(=O)NCC(=O)N[C@@H](CO)C(=O)N[C@@H](CC(N)=O)C(=O)N[C@H](C(=O)N[C@@H](Cc1ccc(O)cc1)C(N)=O)[C@@H](C)O)C(C)C)[C@@H](C)O)C(C)C [rAmy] | 64 ± 16 | 92 ± 9 | 78 ± 6 | 109 ± 10 | 115 ± 13 |
